Experimental data as given in publication PMC2673211, “Nitric oxide activates ATP-sensitive potassium channels in mammalian sensory neurons: action by direct S-nitrosylation” (Molecular Pain, 2009).
Where two headings read alike, the source gives them in different places.

Experiments:
[1] = target: T1, KATP channels in large DRG neurons (Rattus norvegicus, UniProt P70673+Q09429); assay: Excised inside-out (cell-free) patch-clamp recording of KATP channel activity; format: biochemical
T1 construct: native KATP channels in large DRG neurons; endogenous in cells; host or cells: acutely dissociated large-diameter neurons from rat L4/L5 dorsal root ganglia (sham-operated or spinal nerve ligated animals)
Source text: (§1) We harvested control (L4 and L5) or axotomized (L5) ganglia, from control (SS) or hyperalgesic rats (SNL) respectively, between the 17th and 28th postoperative days. We sacrificed animals by decapitation under deep isoflurane anesthesia, excised ganglia through a lumbar incision, and at the same time confirmed accuracy of initial surgery.
For patch-clamp recordings, we placed excised DRG into separate 35 mm Petri dishes containing cold, oxygenated, Hanks Balanced Salt Solution (Gibko, Invitrogen, Grand Islan, NY), and minced them with iris scissors. We dissociated ganglia enzymatically in a solution containing 0.25 ml 0.05% w:v liberase blendzyme 2 (Roche Diagnostics Corp., Indianapolis, IN) and 0.25 ml DMEM/F12 with glutaMAX (Dulbecco's modified Eagle's medium F12; Gibco, Invitrogen Corp., Carlsbad, CA) in an incubator at 37°C for 30 min. We then removed the supernatant after centrifugation and re-incubated cells at 37°C for another 30 min in 0.2 ml 0.0625% trypsin (Sigma, St. Louis, MO) and 0.0125% deoxyribonuclease 1 (150,000 U, Sigma, St. Louis, MO) in 0.25 ml DMEM. We then isolated cells by centrifugation (600 rpm for 5 min) after adding 0.25 ml trypsin inhibitor 0.1% w:v (Sigma St. Louis, MO), and re-suspended them in a culture medium consisting of 0.5 mM glutamine, 0.02 mg/ml gentamicin (Gibco, Invitrogen Corp., Carlsbad, CA), 100 ng/ml nerve growth factor 7S (Alomone Labs, Jerusalem, Israel), 2% (vol/vol) B-27 supplement (Gibco, Invitrogen Corp., Carlsbad, CA), and 98% (vol/vol) neural basal medium A (Gibco, Invitrogen Corp., Carlsbad, CA). Finally, we plated cells onto poly-l-lysine-coated 12-mm glass coverslips (Deutsche Spiegelglas; Carolina Biologic Supply, Burlington, NC), kept them in a humidified incubator at 37°C with 95% air and 5% CO2, and studied them within 3–8 h of dissociation.
We visualized plated neurons using an inverted Nikon Diaphot 300 microscope with Hoffman modulation optic system. We selected only large diameter neuronal somata (≥ 40 μm in diameter) because we have previously shown that only these develop KATP current alterations, as well as changes indicative of increased excitability after painful-like nerve injury by SNL [74]. Large neuronal somata, roughly correspond to large, myelinated Aβ fibers.
(§2) We recorded current passing through single channels in inside-out or cell-attached patch configurations. In cell-attached patches, both bath and pipette (extracellular) solutions were composed of the following: 140 mM KCl, 10 mM HEPES, 5.5 mM dextrose, and 1 mM EGTA. In inside-out patches, the bath (intracellular) solution contained 140 mM KCl, 1.2 mM MgCl2, 10 mM HEPES, 1.5 mM EGTA and 5.5 mM dextrose. The pipette (extracellular) solution was of the same composition as that used in cell-attached recordings. The pH of all solutions was adjusted to 7.4 with KOH. Osmolality was adjusted approximately to 300 mOsm/l by adding sucrose if necessary. We pulled patch micropipettes from borosilicate glass capillaries using a Flaming/Brown micropipette puller, model P-97 (Sutter, San Rafael, CA) and flame polished them with a microforge polisher (Narishige, Tokyo, Japan) prior to use. Their resistance ranged between 3 and 6 MΩ when filled with the internal solution, and placed into the recording solutions.
(§3) We recorded single channel currents at room temperature (20–25°C) using an Axon CNS Multiclamp 700B amplifier, digitized them using an analog-to-digital converter (Axon CNS DigiData 1440A; Axon Instruments, Foster, CA), and stored them into a PC. Sampling frequency of single-channel data was 5 KHz with a low-pass filter (1 KHz). We used pClamp version 10.2 software (Axon Instruments) for data acquisition and analysis. We applied a conventional 50% current amplitude threshold level criterion to determine open events. Channel open probability (Po) was determined from the ratios of the area under the peaks in the amplitude histograms fitted by a Gaussian distribution. […]

[2] = target: T1, KATP channels in large DRG neurons; assay: Cell-attached single-channel patch-clamp recording of KATP channel activity (NPo); format: cell-based; details: for NPo 10 min after SNAP following pretreatment with ODQ: ODQ 10 μM for 20 min; for NPo 10 min after SNAP following pretreatment with ODQ / NPo 10 min after SNAP following pretreatment with KT 5823: then SNAP 100 μM; for baseline NPo after pretreatment with L-NAME: L-NAME 100 μM for 20 minutes; for NPo, DNP-induced channel opening: DNP 100 μM bath application, -60 mV; for NPo 10 min after SNAP following pretreatment with KT 5823: KT 5823 1 μM for 20 min
Source text: as §1
For patch-clamp recordings, we placed excised DRG into separate 35 mm Petri dishes containing cold, oxygenated, Hanks Balanced Salt Solution (Gibko, Invitrogen, Grand Islan, NY), and minced them with iris scissors. We dissociated ganglia enzymatically in a solution containing 0.25 ml 0.05% w:v liberase blendzyme 2 (Roche Diagnostics Corp., Indianapolis, IN) and 0.25 ml DMEM/F12 with glutaMAX (Dulbecco's modified Eagle's medium F12; Gibco, Invitrogen Corp., Carlsbad, CA) in an incubator at 37°C for 30 min. […] Finally, we plated cells onto poly-l-lysine-coated 12-mm glass coverslips (Deutsche Spiegelglas; Carolina Biologic Supply, Burlington, NC), kept them in a humidified incubator at 37°C with 95% air and 5% CO2, and studied them within 3–8 h of dissociation.
We visualized plated neurons using an inverted Nikon Diaphot 300 microscope with Hoffman modulation optic system. […] Large neuronal somata, roughly correspond to large, myelinated Aβ fibers.
as §2
Sampling frequency of single-channel data was 5 KHz with a low-pass filter (1 KHz). […] We applied a conventional 50% current amplitude threshold level criterion to determine open events. Channel open probability (Po) was determined from the ratios of the area under the peaks in the amplitude histograms fitted by a Gaussian distribution. We calculated channel activity as NPo (where N is the number of observed channels in the patch) from data samples of either 30 s (in inside-out recordings), or 60 s (in cell-attached recordings), in the steady state. In inside-out recordings, NPo of the KATP channels was normalized to the baseline NPo value obtained before test drugs at bathing solution without ATP (indicating relative channel activity).

[3] = target: T2, wild-type SUR1/Kir6.2 channels (Rattus norvegicus, UniProt P70673+Q09429); assay: Inside-out patch recording of recombinant wild-type channels expressed in COS7 cells; format: biochemical
T2 construct: A full-length Kir cDNA and a full-length SUR cDNA were subcloned into the mammalian expression vector; expressed in transfected cells; host or cells: COS7 cells (KATP channel-deficient), pcDNA3.1(-) vectors, GFP cDNA co-transfected as a separate reporter
Procedure: (§4) KATP channel-deficient COS7 cells were plated at a density of 3 × 10^5/dish (35 mm in diameter) and cultured in Dulbecco's modified Eagle's medium supplemented with 10% fetal calf serum. Rat Kir6.2 (GenBank X97041) and rat SUR1 (GenBank X97279) cDNAs were used for expression study. A truncated form of Kir6.2 lacking the last 36 amino acids at the C-terminus was obtained by polymerase chain reaction amplification. Polymerase chain reaction products were cloned into the pCR3.1 vector by using the TA cloning system (Invitrogen Corp., Carlsbad, CA, USA) and then cloned into the pcDNA3.1 (-) vector (Invitrogen Corp.) for mammalian expression. Point mutation of cysteine at position 717 (C717), C806, C1378, C1446, and C1491 within SUR1 to serine (C717S, C806S, C1378S, C1446S, and C1491S) was performed by using the Site-Directed Mutagenesis system (Invitrogen Corp.). All cDNA products were sequenced by using the BigDye terminator cycle sequencing kit and an ABI PRISM 377 DNA sequencer (Applied Biosystems, Foster City, CA) to confirm the sequence. A full-length Kir cDNA and a full-length SUR cDNA were subcloned into the mammalian expression vector pcDNA3.1 (-). For electrophysiological recordings, either wild-type or mutated pcDNA3.1 (-) Kir6.2 alone (1 μg), or pcDNA3.1 (-) Kir6.2 (1 μg) plus pcDNA3.1 (-) SUR1 (3 μg) were transfected into COS7 cells with green fluorescent protein cDNA as a reporter gene by using lipofectamine and Opti-MEN 1 reagents (Life Technologies Inc., Rockville, MD) according to the manufacturer's instructions. After transfection, cells were cultured at 37°C with 95% air and 5% CO2 for 48–72 h before being subjected to electrophysiological recordings.
as §2
as §3, with “We applied a conventional 50% current amplitude threshold level criterion to determine open events.” left out, “distribution. We calculated channel activity as NPo (where N is the number of observed channels in the patch) from data samples of either 30 s (in inside-out recordings), or 60 s (in cell-attached recordings), in the steady state.” for “distribution.”

[4] = target: T3, SUR1-C717S/Kir6.2 channels (Rattus norvegicus, UniProt P70673+Q09429, C717S); assay: Inside-out patch recording of mutated channels expressed in COS7 cells; format: biochemical; details: n = 7
T3 construct: A full-length Kir cDNA and a full-length SUR cDNA were subcloned into the mammalian expression vector; expressed in transfected cells; host or cells: COS7 cells, pcDNA3.1(-) vectors, GFP cDNA co-transfected as a separate reporter
Procedure: as §4, §2
as §3, with “We applied a conventional 50% current amplitude threshold level criterion to determine open events.” left out, “distribution. We calculated channel activity as NPo (where N is the number of observed channels in the patch) from data samples of either 30 s (in inside-out recordings), or 60 s (in cell-attached recordings), in the steady state.” for “distribution.”

[5] = agent alone, vs. baseline/control

T1 sequence (Q09429 whole entry): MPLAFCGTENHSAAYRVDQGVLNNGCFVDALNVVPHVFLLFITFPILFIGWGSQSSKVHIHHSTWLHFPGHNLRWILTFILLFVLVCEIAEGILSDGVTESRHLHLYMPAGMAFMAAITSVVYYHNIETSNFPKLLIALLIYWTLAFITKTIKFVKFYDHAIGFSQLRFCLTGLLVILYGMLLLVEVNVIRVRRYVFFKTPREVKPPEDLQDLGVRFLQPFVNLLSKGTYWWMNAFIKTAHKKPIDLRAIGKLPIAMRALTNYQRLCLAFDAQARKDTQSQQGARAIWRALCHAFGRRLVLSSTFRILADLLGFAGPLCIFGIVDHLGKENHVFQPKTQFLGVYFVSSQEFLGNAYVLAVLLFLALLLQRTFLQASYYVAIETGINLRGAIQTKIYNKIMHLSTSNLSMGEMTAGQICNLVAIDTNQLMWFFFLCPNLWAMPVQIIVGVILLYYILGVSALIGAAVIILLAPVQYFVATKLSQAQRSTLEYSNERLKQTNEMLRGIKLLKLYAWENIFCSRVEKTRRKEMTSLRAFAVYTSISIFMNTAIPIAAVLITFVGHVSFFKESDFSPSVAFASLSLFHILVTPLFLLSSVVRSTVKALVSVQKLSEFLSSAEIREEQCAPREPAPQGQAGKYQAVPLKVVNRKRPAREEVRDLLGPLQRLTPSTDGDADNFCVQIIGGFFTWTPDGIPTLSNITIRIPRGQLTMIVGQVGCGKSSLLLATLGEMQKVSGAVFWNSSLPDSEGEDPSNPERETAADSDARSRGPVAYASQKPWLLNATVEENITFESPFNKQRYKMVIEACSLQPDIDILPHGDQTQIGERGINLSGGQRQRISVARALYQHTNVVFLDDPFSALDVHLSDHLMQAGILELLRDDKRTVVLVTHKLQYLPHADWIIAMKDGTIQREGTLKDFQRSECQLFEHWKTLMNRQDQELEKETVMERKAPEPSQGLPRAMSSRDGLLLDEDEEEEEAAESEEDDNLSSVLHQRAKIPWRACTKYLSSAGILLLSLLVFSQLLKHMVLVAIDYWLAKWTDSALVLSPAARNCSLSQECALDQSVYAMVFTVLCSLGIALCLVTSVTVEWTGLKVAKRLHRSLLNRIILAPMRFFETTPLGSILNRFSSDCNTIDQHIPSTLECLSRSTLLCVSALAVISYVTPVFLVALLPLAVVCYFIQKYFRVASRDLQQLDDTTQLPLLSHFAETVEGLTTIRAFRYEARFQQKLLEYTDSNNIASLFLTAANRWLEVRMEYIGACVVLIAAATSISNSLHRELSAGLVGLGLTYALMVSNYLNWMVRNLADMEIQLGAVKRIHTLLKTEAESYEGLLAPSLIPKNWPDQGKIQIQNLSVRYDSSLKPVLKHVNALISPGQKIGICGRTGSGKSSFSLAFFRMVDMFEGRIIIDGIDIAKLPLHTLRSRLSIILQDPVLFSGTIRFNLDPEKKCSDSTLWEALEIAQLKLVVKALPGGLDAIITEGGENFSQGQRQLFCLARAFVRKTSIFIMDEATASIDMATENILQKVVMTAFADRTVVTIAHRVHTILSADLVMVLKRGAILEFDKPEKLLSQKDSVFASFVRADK
T1 sequence (P70673 whole entry): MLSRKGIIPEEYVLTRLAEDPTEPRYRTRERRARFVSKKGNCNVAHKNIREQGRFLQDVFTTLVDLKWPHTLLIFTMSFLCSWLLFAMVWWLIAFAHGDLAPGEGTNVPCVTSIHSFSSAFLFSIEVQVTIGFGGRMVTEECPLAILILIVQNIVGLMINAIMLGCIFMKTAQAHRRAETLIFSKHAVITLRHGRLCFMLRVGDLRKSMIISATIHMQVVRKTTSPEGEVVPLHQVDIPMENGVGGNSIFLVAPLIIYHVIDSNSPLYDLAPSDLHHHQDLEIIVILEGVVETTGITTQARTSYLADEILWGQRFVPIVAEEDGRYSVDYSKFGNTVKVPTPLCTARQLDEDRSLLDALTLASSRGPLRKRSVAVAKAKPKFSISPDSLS
T2 sequence (Q09429 whole entry): as the sequence (Q09429 whole entry) above
T2 sequence (P70673 whole entry): as the sequence (P70673 whole entry) above
T3 sequence (Q09429 whole entry C717S): as the sequence (Q09429 whole entry) above, with C717S counted along it
T3 sequence (P70673 whole entry): as the sequence (P70673 whole entry) above

O=c1onc2cnc3ccccc3n12 [ODQ, 1H-[1,2, 4] oxadiazolo [4,3-a] quinoxalin-1-one]
direct effect on KATP channels in inside-out patches [1, 5]: neither ODQ nor KT 5823 had any direct effect
NPo 10 min after SNAP following pretreatment with ODQ ([2]; SNL neurons, n = 6): 0.27 ± 0.16
NPo 10 min after SNAP following pretreatment with ODQ ([2]; SS neurons, n = 6): 0.25 ± 0.09

COC(=O)[C@@H](N)CCCNC(N)=N[N+](=O)[O-] [L-NAME, NG-nitro-L-arginine methyl ester]
direct effect on KATP channels in inside-out patches [1, 5]: no direct effect
baseline NPo after pretreatment with L-NAME ([2]; SNL neurons, n = 7): 0.06 ± 0.04
baseline NPo after pretreatment with L-NAME ([2]; SS neurons, n = 7): 0.114 ± 0.06

O=[N+]([O-])c1ccc(O)c([N+](=O)[O-])c1 [DNP, 2,4-Dinitrophenol]
direct effect on KATP channels in inside-out patches ([1]; DNP 100 μM, SS and SNL, vs. baseline): no direct effect
NPo, DNP-induced channel opening ([2]; SNL neurons, n = 8): 0.208 ± 0.16
NPo, DNP-induced channel opening ([2]; SS neurons, n = 8): 0.442 ± 0.26

nitric oxide [NO]
potency of direct activation of cloned channels relative to native channels (less potent) ([3]; cloned SUR1/Kir6.2 in COS7 cells vs. native channels in DRG neurons): approximately 3 fold

CCCOc1ccccc1-c1nc2nn[nH]c2c(=O)[nH]1 [zaprinast]
effect on KATP channel activity ([2]; zaprinast, control and SNL neurons, data not shown): no effect

Nc1nc2c(nc(Br)n2[C@@H]2O[C@@H]3COP(=O)([O-])O[C@H]3[C@H]2O)c(=O)[nH]1.[Na+] [8-Br-cGMP, 8-bromo-cGMP sodium salt]
time to steady-state activation after exposure ([2]; 8-Br-cGMP 100 μM): 2 to 3 min
effect when applied after SNAP-induced steady-state activation ([2]; 8-Br-cGMP at least 5 min after SNAP 100 μM, SS and SNL neurons, n = 5 each): additional further channel opening
NPo 5 min after application of 8-Br-cGMP ([2]; SNL neurons, 8-Br-cGMP 100 μM, n = 7): 0.17 ± 0.06
NPo 5 min after application of 8-Br-cGMP ([2]; SS neurons, 8-Br-cGMP 100 μM, n = 8): 0.22 ± 0.08

CCN1C(=O)C=CC1=O [NEM, N-ethylmaleimide]
effect on basal channel activity ([1]; NEM 5 mM, 1 mM [ATP]i, n = 6): significantly decreased
effect on the activating effect of SNAP on KATP channels ([1]; SS neurons, NEM 5 mM before SNAP 100 μM, 1 mM [ATP]i, n = 6): completely eliminated

COC(=O)[C@@]1(OC)C[C@H]2O[C@]1(C)n1c3ccccc3c3c4c(c5c6ccccc6n2c5c31)C(=O)N(C)C4 [KT 5823]
direct effect on KATP channels in inside-out patches [1, 5]: neither ODQ nor KT 5823 had any direct effect
effect of pretreatment on 8-Br-cGMP-induced KATP channel activation ([2]; KT 5823, SS and SNL neurons): significantly reduces
NPo 10 min after SNAP following pretreatment with KT 5823 ([2]; SNL neurons, n = 6): 0.26 ± 0.19
NPo 10 min after SNAP following pretreatment with KT 5823 ([2]; SS neurons, n = 5): 0.14 ± 0.17

Nc1ncnc2c1ncn2[C@@H]1O[C@H](COP(=O)(O)OP(=O)(O)OP(=O)(O)O)[C@@H](O)[C@H]1O [ATP]
effect on recombinant channel currents ([4]; 1 mM [ATP]i): strongly inhibited
IC50 ([4]; read-out: ATP-sensitivity IC50): 13.1 µM
effect on channel activity in inside-out patches ([1]; ATP 1 mM, SS and SNL, -60 mV): reversibly blocked
IC50 ([1]; SNL neurons, various intracellular ATP concentrations, n = 5, read-out: ATP sensitivity IC50): 18.1 µM
IC50 ([1]; SS neurons, various intracellular ATP concentrations, n = 5, read-out: ATP sensitivity IC50): 14.7 µM
IC50 ([1]; absence of SNAP, SS neurons, n = 7, read-out: IC50 value for [ATP]i): 12.8 µM
IC50 ([1]; presence of SNAP, SS neurons, n = 7, read-out: IC50 value for [ATP]i): 54.4 µM
effect on recombinant channel currents ([3]; 1 mM [ATP]i, COS7 cells, inside-out): strongly inhibited
IC50 ([3]; n = 7, read-out: ATP-sensitivity IC50): 11.6 µM
